According to paper PMC11079024, “Identification of a family of species-selective complex I inhibitors as potential anthelmintics” (Nature Communications, 2024):
“And” between values parts separate entries of the source, which are not always exact repeats. Identical values can stand only once.

Tests used:
C. elegans = C. elegans chemical screens of RIKEN NPD libraries at 50 μM (hit identification in KCN survival and development/viability assays); format: cell-based, Caenorhabditis elegans; conditions: screened at 50 μM in triplicate; hit = modified z-score < −3; KCN = KCN survival assay, Dev. & Viability = development/viability assay
HEK293 cells = conditions: read-out: HEK293 Cell Viability Assay LC50; 2 days exposure
L1 wild-type C. elegans = conditions: for LC50: caenorhabditis elegans
[1] = system: C. elegans complex IV (cytochrome C oxidase); test: In vitro complex IV activity assay, C. elegans mitochondria; format: biochemical, Caenorhabditis elegans; conditions: for % Activity Complex IV: 100 µM compound, relative to solvent control, mean (SEM); for Percent in vitro activity, Complex IV (single replicate Rep1-Rep4) / Percent in vitro activity, Complex IV (Mean): 100 μM of NPD compound, C. elegans mitochondria; for Percent in vitro activity, Complex IV (single replicate Rep1-Rep4): individual biological replicates; for Percent in vitro activity, Complex IV (Mean): mean of four biological replicates
Experimental: (§1) Mitochondria were isolated from the following free-living nematode strains: C. elegans—N2, CB3474, ECA882, ECA917, ECA1075, ECA1080; C. briggsae—AF16; P. pacificus—PS312; and P. hermaphrodita—B178. With the exception of the P. hermaphrodita strain B178, adult worms of each strain were grown in bulk through liquid culture to obtain mitochondria in sufficient quantities. Due to poor growth in liquid media, mixed stage populations of P. hermaphrodita were washed off and collected from NGM plates seeded with OP50. The isolation of mitochondria from all free-living nematode strains followed the protocol previously outlined in Burns et al.[24]. In brief, a 1 L saturated culture of E. coli HB101 was concentrated 20-fold in 50 mL complete S-medium. ~500,000 L1 worms synchronized from an embryo preparation performed the day prior were added to the S-media/HB101 suspension and grown to adulthood over the course of 3.5 days at 20 °C with shaking at 165 rpm. Following growth, worms were collected in 10 ×15 mL conical tubes and washed 7 times in M9 buffer. Worm suspensions were then combined into a single 15 mL conical tube and diluted to a final volume of 15 mL with M9 buffer. 1 mL aliquots of worm suspension were then distributed to 15 × 1.5 mL screw-cap microcentrifuge tubes and were pelleted at 500 g for 1 min. Excess M9 was aspirated without disturbing the worm pellet. 600 μL ice-cold isolate buffer A (250 mM sucrose, 10 mM Tris (pH 7.5), 1 mM EDTA, 1 mM PMSF (freshly prepared)) and 300 μL cold glass beads were then added to each tube. Tubes were incubated on ice for 10 min, and the worms were then lysed by bead beating (6 x 30 s, with 1 min cooling intervals). Tubes containing worm lysate were centrifuged at 1,000 g for 10 min at 4 °C and the supernatant was transferred to 15 new microcentrifuge tubes on ice. The tubes were centrifuged a second time at 1,000 g for 10 min at 4 °C and the supernatant was once again transferred to 15 new microcentrifuge tubes on ice. These tubes were then centrifuged at 16,000 g for 10 min at 4 °C. The resulting mitochondrial pellet was washed twice by re-suspension in 300 μL of ice-cold isolate buffer B (250 mM sucrose, 10 mM Tris (pH 7.5), 1 mM EDTA). Following the final wash, isolation buffer was aspirated from each tube and the pellets were flash-frozen in ethanol/dry ice and stored at −80 °C until needed.
(§2) The enzymatic activities of individual ETC complexes (I-IV) were assessed spectrophotometrically in isolated mitochondria using a Varioskan LUX Multimode plate reader (ThermoFisher Scientific). Mitochondrial pellets previously isolated were thawed on ice and resuspended in ice-cold isolation buffer (250 mM sucrose, 10 mM Tris (pH 7.5), 1 mM EDTA). The BCA assay (Walker, 1994) was used to quantify the protein concentration of mitochondria suspensions; solutions were diluted to a concentration of 0.2 mg/mL for use in all assays. For the complex I assay, mitochondria pellets were freeze-thawed on ice three times to increase enzyme accessibility. […] 20 μL mitochondria suspension was then added/mixed with a pipette to initiate the reaction. Immediately following the addition of mitochondria, absorbance was measured (complex I and II: 600 nm; complex III and IV: 550 nm) in 30 s intervals over 15 min. Enzymatic activity was determined in each reaction by plotting absorbance versus time and calculating the slope of the curve during the initial linear phase of the reaction. […] Percent activity of each complex was calculated by dividing the enzyme-specific activity of each well by the enzyme-specific activity of the corresponding solvent controls.
Complex IV (cytochrome C oxidase) activity was determined by following the oxidation of CytC in the protocol outlined by Janssen and Boyle, 2019[60]. Reduced CytC was prepared fresh by adding 1 μL increments of 1 M dithiothreitol to a 1 mM solution of CytC and vortexing. A colour change from brown to orange/pink signals when CytC has been reduced.

[2] = system: C. elegans complex III (decylubiquinol-cytochrome C reductase); test: In vitro complex III activity assay, C. elegans mitochondria; format: biochemical, Caenorhabditis elegans; conditions: for % Activity Complex III: 100 µM compound, relative to solvent control, mean (SEM); for Percent in vitro activity, Complex III (single replicate Rep1-Rep4) / Percent in vitro activity, Complex III (Mean): 100 μM of NPD compound, C. elegans mitochondria; for Percent in vitro activity, Complex III (single replicate Rep1-Rep4): individual biological replicates; for Percent in vitro activity, Complex III (Mean): mean of four biological replicates
Experimental: as §1, §2
Antimycin A-sensitive complex III (decylubiquinol-cytochrome C […]) activity was determined by measuring the reduction of cytochrome C (CytC) as optimized in Luo et al.[59]. Decylubiquinol for complex III assays was prepared fresh as described in Janssen and Boyle, 2019[60].

[3] = biological target: C. elegans (N2) complex I (NADH:ubiquinone oxidoreductase) (Caenorhabditis elegans, UniProt P24887+Q93873+Q94360); test: biochemical; format: biochemical; conditions: for % Activity Complex I: 100 µM compound, relative to solvent control, mean (SEM); for Percent in vitro activity, Complex I (single replicate Rep1-Rep4) / Percent in vitro activity, Complex I (Mean): 100 μM of NPD compound, C. elegans mitochondria; for Percent in vitro activity, Complex I (single replicate Rep1-Rep4): individual biological replicates; for Percent in vitro activity, Complex I (Mean): mean of four biological replicates
Chain of C. elegans (N2) complex I (NADH:ubiquinone oxidoreductase) (Q94360 17-199): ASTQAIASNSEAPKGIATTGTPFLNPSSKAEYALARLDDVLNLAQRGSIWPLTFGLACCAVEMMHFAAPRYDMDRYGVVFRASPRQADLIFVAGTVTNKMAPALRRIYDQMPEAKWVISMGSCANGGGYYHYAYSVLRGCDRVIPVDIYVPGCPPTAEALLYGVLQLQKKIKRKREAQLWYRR
Chain of C. elegans (N2) complex I (NADH:ubiquinone oxidoreductase) (P24887 whole entry): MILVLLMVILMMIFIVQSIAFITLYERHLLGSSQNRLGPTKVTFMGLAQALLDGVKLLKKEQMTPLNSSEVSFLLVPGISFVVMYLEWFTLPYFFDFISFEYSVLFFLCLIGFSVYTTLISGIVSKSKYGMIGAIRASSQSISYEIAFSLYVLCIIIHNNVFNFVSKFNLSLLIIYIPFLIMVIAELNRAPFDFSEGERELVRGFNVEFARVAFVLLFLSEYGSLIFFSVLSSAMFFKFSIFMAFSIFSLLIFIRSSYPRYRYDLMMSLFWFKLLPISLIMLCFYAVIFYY
Chain of C. elegans (N2) complex I (NADH:ubiquinone oxidoreductase) (Q93873 31-482): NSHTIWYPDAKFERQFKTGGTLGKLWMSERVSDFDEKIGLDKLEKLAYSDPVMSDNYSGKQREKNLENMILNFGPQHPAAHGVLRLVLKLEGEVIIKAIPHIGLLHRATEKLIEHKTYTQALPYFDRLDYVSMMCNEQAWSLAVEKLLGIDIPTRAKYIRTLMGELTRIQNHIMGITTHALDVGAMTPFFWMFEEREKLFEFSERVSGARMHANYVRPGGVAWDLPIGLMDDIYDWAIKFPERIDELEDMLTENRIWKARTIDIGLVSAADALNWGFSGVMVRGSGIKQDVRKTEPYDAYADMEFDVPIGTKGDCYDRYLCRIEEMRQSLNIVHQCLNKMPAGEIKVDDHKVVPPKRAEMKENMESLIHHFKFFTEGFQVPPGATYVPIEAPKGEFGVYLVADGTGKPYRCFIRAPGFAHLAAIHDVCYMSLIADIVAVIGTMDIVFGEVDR
Method in brief: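 Compounds were tested against freeze-thawed isolated mitochondria (0.2 mg/mL protein). NADH:decylubiquinone activity was monitored via DCIP absorbance at 600 nm, and the initial linear slope was normalised to solvent controls.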

[4] = biological target: C. elegans complex II (succinate dehydrogenase) (Caenorhabditis elegans, UniProt O62215+P41956+Q09545); test: In vitro complex II activity assay, C. elegans mitochondria; format: biochemical; conditions: for % Activity Complex II: 100 µM compound, relative to solvent control, mean (SEM); for Percent in vitro activity, Complex II (single replicate Rep1-Rep4) / Percent in vitro activity, Complex II (Mean): 100 μM of NPD compound, C. elegans mitochondria; for Percent in vitro activity, Complex II (single replicate Rep1-Rep4): individual biological replicates; for Percent in vitro activity, Complex II (Mean): mean of four biological replicates
Chain of C. elegans complex II (succinate dehydrogenase) (P41956 30-182): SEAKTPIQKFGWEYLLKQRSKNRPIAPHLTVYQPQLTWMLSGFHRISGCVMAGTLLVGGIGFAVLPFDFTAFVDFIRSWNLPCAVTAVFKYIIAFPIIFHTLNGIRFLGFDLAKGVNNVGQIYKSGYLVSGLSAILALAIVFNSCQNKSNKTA
Chain of C. elegans complex II (succinate dehydrogenase) (Q09545 22-298): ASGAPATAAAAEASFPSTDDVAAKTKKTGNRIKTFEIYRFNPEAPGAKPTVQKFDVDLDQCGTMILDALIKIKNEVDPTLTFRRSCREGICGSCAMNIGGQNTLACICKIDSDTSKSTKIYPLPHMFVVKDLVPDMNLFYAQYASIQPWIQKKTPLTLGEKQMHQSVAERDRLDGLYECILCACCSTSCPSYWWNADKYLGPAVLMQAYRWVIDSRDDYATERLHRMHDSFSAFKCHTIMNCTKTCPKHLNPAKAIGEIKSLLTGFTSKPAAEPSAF
Chain of C. elegans complex II (succinate dehydrogenase) (Q09508 32-646, further chain): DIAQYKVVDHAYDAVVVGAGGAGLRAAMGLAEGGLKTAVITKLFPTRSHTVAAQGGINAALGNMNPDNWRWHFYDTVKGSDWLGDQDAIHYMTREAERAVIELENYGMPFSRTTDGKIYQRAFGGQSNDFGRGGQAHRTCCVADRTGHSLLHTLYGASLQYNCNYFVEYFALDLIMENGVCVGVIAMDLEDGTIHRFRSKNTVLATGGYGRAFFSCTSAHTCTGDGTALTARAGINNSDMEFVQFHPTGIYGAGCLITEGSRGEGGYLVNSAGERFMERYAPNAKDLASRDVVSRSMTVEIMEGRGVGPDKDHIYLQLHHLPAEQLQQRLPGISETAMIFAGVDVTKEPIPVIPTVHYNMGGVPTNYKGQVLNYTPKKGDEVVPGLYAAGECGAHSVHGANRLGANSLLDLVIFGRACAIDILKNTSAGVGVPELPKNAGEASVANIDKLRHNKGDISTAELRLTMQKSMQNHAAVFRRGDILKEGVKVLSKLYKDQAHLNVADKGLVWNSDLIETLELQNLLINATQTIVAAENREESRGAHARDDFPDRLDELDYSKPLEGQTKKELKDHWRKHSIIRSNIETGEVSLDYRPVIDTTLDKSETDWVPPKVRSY
Chain of C. elegans complex II (succinate dehydrogenase) (O62215 31-145): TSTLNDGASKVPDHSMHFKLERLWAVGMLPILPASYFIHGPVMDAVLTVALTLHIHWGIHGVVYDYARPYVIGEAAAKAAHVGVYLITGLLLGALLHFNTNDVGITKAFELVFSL
Experimental: as §1, §2
Complex II (succinate dehydrogenase) activity was assessed using the DCIP-coupled method previously described in Burns et al.[24].
For preliminary screens of hit compounds, compounds were screened at 100 μM; data are the average of at least three biological replicates. The complex I and II activity assays were used for additional dose-response experiments.

Row | Structure (SMILES) | Hit Type (C. elegans) | CC50 (HEK293 cells) [µM] | C. elegans L1 relative motility, 3-hour post 200 µM KCN dilution (L1 wild-type C. elegans) | LC50 (L1 wild-type C. elegans) [µM] | % Activity Complex IV [1] | Percent in vitro activity, Complex IV (single replicate Rep1-Rep4) [1] | Percent in vitro activity, Complex IV (Mean) [1] [%] | % Activity Complex III [2] | Percent in vitro activity, Complex III (single replicate Rep1-Rep4) [2] | Percent in vitro activity, Complex III (Mean) [2] [%] | % Activity Complex I [3] | Percent in vitro activity, Complex I (single replicate Rep1-Rep4) [3] | Percent in vitro activity, Complex I (Mean) [3] [%] | % Activity Complex II [4] | Percent in vitro activity, Complex II (single replicate Rep1-Rep4) [4] | Percent in vitro activity, Complex II (Mean) [4] [%]
1 | O=C(CCCN1C(=O)c2cccc3cccc(c23)C1=O)N1CCN(Cc2ccc3c(c2)OCO3)CC1 [HTD0465] | Dev. & Viability | 20.5 | – | – | – | – | – | – | – | – | – | – | – | – | – | –
2 | O=C1OC(c2ccccc2)=NC1=CC=Cc1ccccc1 (mixture of isomers) [NPD8298] | KCN | > 50 | 0.014 | 2.57 | 108.05 (2.17) % | 99.305% and 106.055% and 106.771% and 120.048% | 108.045 | 101.94 (2.48) % | 91.530% and 111.178% and 95.430% and 109.622% | 101.940 | 79.90 (1.23) % | 86.721% and 79.429% and 78.427% and 75.015% | 79.898 | 110.37 (5.08) % | 109.359% and 85.283% and 134.975% and 111.861% | 110.370
3 | Cc1cc(O)c(C(=O)/C=C/c2ccc(C(C)C)cc2)c(=O)o1 [NPD6240] | KCN | 24.8 | 0.078 | 7.6 | 26.82 (0.75) % | 23.388% and 25.790% and 27.706% and 30.409% | 26.823 | 58.21 (2.30) % | 63.255% and 68.621% and 49.848% and 51.103% | 58.207 | 102.09 (1.80) % | 109.404% and 106.987% and 94.906% and 97.066% | 102.091 | 87.73 (3.81) % | 105.436% and 95.089% and 72.487% and 77.924% | 87.734
4 | CC1(C#CCN2CCCCCC2)CCC2C(O1)c1ccccc1OC2(C)C (stereo not shown) [NPD5219] | Dev. & Viability | 14.8 | – | – | – | – | – | – | – | – | – | – | – | – | – | –
5 | Cc1nc2ccc(Br)cc2c2c1CC(C)O2 (racemic) [NP974] | KCN/Dev. & Viability | – | – | 19 | – | – | – | – | – | – | – | – | – | – | – | –
6 | COc1ccccc1/C=C/C(=O)c1cc(C)ccc1O [NPD8582] | KCN | – | – | 14.7 | – | – | – | – | – | – | – | – | – | – | – | –
